Reference: patent US6630471B1, “Substituted triazolo-pyridazine derivative, pharmaceutical compositions made therefrom” (Merck Sharp & Dohme Ltd., priority 1998, dated 2003)
One block for each molecule: values may come before it.

Legend:
[1] = moisture vapour sorption (adsorption/desorption isotherm); format: physicochemical
Procedure: These moisture vapour sorption studies show formation of a dihydrate above 80% relative humidity (RH) at 25° C. Hysteresis indicative of hydrate formation is seen to occur, with desorption occurring below ca. 60% RH.

aqueous solubility = format: physicochemical
Text: This conversion is slow due to the low aqueous solubility of Compound I in relation to the large excess of solid compound slurried.

relative humidity of dihydrate formation ([1]; 25° C., adsorption): above 80 % relative humidity (RH)
relative humidity of desorption (hysteresis) ([1]; 25° C., desorption): < 60 % RH
Compound: CCn1ncnc1COc1nn2c(-c3ccccc3F)nnc2cc1C(C)(C)C [Compound I polymorph A, 7-(1,1-Dimethylethyl)-6-(2-ethyl-2H-1,2,4-triazol-3-ylmethoxy)-3-(2-fluorophenyl)-1,2,4-triazolo[4,3-b]pyridazine]

aqueous solubility (aqueous solubility): low
Compound: CCn1ncnc1COc1nn2c(-c3ccccc3F)nnc2cc1C(C)(C)C [Compound I, 7-(1,1-Dimethylethyl)-6-(2-ethyl-2H-1,2,4-triazol-3-ylmethoxy)-3-(2-fluorophenyl)-1,2,4-triazolo[4,3-b]pyridazine]

stability of the dihydrate ([1]; humidity): stable, but only at elevated humidities
Compound: CCn1ncnc1COc1nn2c(-c3ccccc3F)nnc2cc1C(C)(C)C [dihydrate of polymorph A, 7-(1,1-Dimethylethyl)-6-(2-ethyl-2H-1,2,4-triazol-3-ylmethoxy)-3-(2-fluorophenyl)-1,2,4-triazolo[4,3-b]pyridazine]
